For one test, the target named is T1, androgen receptors (AR) (Rattus norvegicus, UniProt P15207).
T1 construct: androgen receptors (AR) derived form rat prostate; from tissue; host or cells: rat prostate
T1 sequence (P15207 1-902): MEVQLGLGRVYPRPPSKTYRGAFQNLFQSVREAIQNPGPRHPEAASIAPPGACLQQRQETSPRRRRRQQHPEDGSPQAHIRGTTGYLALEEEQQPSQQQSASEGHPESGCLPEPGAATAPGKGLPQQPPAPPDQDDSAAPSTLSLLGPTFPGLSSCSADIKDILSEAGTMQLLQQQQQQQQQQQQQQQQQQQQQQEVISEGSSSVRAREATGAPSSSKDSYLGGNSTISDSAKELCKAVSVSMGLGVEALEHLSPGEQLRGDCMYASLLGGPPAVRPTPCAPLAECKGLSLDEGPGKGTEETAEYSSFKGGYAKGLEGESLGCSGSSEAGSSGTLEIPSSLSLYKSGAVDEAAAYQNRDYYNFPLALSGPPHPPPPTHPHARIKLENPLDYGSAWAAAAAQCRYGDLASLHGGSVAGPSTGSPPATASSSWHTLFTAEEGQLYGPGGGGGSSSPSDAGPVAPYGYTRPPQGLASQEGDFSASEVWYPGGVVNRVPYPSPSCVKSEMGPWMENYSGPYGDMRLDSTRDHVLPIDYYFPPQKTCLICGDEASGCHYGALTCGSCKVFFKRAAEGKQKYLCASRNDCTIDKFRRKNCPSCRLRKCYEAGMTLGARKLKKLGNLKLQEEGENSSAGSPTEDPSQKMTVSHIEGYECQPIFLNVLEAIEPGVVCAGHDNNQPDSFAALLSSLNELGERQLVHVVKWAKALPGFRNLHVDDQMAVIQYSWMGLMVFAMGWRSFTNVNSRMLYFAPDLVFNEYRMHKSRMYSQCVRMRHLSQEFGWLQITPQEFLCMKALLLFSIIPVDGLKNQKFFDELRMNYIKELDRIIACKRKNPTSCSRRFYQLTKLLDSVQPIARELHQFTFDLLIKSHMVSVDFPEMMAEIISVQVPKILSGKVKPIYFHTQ
Nature of the test: binding assay using androgen receptors derived from rat prostate and 3H-methyltrienorone. The settings on record: AR derived from rat prostate. The method, then: (§1) Each biding assay was conducted in a similar manner as the procedure described in The Journal of Pharmacology and Experimental Therapeutics, 1987; 240:p. 650-656.
Take `CC1(C)Oc2cc(N)ccc2N(c2ccc(F)c(F)c2)C1=O` [7-amino-4-(3,4-difluorophenyl)-2,2-dimethyl-2H-1,4-benzoxizin-3(4H)-one]: the Ki was below 10 µM.

For another test, the target named is T2, Aldosterone Receptor (Rattus norvegicus, UniProt P22199).
T2 construct: centrifuged at 100,000×g for 1 hour to give a supernatant as a kidney cytosol fraction; from tissue; host or cells: kidney cytosol of adrenalectomised Sprague-Dawley male rats
T2 sequence (P22199 1-981): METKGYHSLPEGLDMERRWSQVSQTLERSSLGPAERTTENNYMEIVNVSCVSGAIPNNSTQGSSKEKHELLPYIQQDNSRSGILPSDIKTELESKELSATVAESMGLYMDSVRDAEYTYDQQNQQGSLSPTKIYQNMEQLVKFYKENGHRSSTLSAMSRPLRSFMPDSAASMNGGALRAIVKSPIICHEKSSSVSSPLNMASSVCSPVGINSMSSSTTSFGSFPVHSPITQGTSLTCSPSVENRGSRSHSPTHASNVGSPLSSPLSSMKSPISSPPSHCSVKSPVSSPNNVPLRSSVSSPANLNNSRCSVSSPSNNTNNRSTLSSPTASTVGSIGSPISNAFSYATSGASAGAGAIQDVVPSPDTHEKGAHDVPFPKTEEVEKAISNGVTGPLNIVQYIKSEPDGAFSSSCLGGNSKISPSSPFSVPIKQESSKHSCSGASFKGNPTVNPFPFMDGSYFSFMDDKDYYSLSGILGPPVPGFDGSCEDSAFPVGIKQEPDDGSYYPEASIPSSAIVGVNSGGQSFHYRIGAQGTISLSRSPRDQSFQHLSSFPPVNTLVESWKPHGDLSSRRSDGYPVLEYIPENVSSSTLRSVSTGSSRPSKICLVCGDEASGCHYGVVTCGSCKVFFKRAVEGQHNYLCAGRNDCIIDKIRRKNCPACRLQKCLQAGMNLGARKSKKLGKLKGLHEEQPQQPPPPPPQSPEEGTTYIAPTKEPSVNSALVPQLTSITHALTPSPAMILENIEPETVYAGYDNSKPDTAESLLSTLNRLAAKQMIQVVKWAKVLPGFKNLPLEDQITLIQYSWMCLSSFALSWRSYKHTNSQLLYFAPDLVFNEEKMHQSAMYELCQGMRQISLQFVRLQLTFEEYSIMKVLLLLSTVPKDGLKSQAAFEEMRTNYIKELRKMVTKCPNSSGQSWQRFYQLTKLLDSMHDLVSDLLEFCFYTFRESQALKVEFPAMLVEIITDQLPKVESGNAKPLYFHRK
Nature of the test: Aldosterone Receptor Binding Assay (Experiment 1; kidney cytosol fraction, [3H]aldosterone). The arrangement: species or system Sprague-Dawley male rats. The settings on record: [3H]aldosterone ca. 2 nM, 4° C. overnight, Ki by Cheng and Prusoff's equation. The method, then:
Experiment 1 [Aldosterone Receptor Binding Assay]
(1) Preparation of Kidney Cytosol Fraction:
Kidneys derived from post-adrenalectomy Sprague-Dawley male rats (7 weeks old) were homogenized in the following buffer solution and the homogenate was centrifuged at 100,000×g for 1 hour to give a supernatant as a kidney cytosol fraction (protein concentration: 15 mg/mL) for the present biding assay.
Composition of Buffer solution: 50 mM Tris-HCl (pH 7.5), 250 mM Sucrose, 50 mM Potassium chloride, 3 mM Magnesium chloride, 20 mM Sodium molybdate and 1 mM Mercaptoethanol
A mixture of 5 μL of a solution of each test compound in dimethylsulfoxide, 200 μL of kidney cytosol fraction, 50 μL of physiological saline (or 50 μL of unlabeled aldosterone solution (final concentration: 1 μM) and (50 μL of [^3H]aldosterone solution (ca. 2 nM) was incubated in a test tube at 4° C. overnight. Thereto was added 100 μL of dextrane-coated charcoal/10 mM Tris-HCl buffer and the mixture was incubated at 4° C. for 30 minutes. The reaction mixture was centrifuged at 3000 rpm for 10 minutes and to the supernatant (150 μL) was added 5 mL of a scintillator (Clearsol II, Nakarai Tesque). The radioactivity was measured by a liquid scintilation counter (TRI CARB 2200CA, Packard). […] Moreover, the dissociation constant (Ki) of each test compound was calculated on Cheng and Prusoff's equation (Ki=IC50/(1+[L]/Kd), wherein [L] is [^3H]aldosterone concentration and Kd is the affinity constant of aldosterone).
Consider `CC1(C)Oc2cc(NS(C)(=O)=O)ccc2N(c2ccc(F)cc2)C1=S` [Example 46, N-[4-(4-fluorophenyl)-2,2-dimethyl-3-thioxo-3,4-dihydro-2H-1,4-benzoxazin-7-yl]methanesulfonamide], for which the inhibition constant (Ki) is below 500 nM.
Still for that read-out and setting: in the case of `COc1cc2c(cc1NS(C)(=O)=O)OC(C)(C)C(=O)N2c1ccc(F)cc1` [Example 101, N-[4-(4-Fluorophenyl)-6-methoxy-2,2-dimethyl-3-oxo-3,4-dihydro-2H-1,4-benzoxazin-7-yl]methanesulfonamide] it was below 500 nM; in that of `CC1(C)Oc2cc(NS(C)(=O)=O)ccc2N(c2ccc(F)c(F)c2)C1=O` [Example 10], below 500 nM.
The same measure, in the same setting: in the case of `CS(=O)(=O)Nc1ccc2c(c1)OC1(CCC1)C(=O)N2c1ccc(F)cc1` [Example 37] it was 500 to 1000 nM.
Still for that read-out and setting: in the case of `Cc1cc(F)ccc1N1C(=O)C(C)(C)Oc2cc(NS(C)(=O)=O)ccc21` [Example 50] it was below 500 nM; in that of `CC1(C)Oc2cc(NS(C)(=O)=O)ccc2N(c2ccc(Cl)cc2)C1=O` [Example 11], below 500 nM; in that of `CC1(C)Nc2cc(NS(C)(=O)=O)ccc2N(c2ccc(F)cc2)C1=O` [Example 45, N-[1-(4-fluorophenyl)-3,3-dimethyl-2-oxo-1,2,3,4-tetrahydroquinoxalin-6-yl]methanesulfonamide], below 500 nM.
On to `CS(=O)(=O)Nc1ccc2c(c1)OC(c1ccccc1)C(=O)N2c1ccc(Cl)cc1` (stereo not drawn) [Example 6], for which the inhibition constant (Ki) was below 500 nM.
On the same count and under the same terms, in the case of `COc1cc(N2C(=O)C(C)(C)Oc3cc(NS(C)(=O)=O)ccc32)ccc1F` [Example 55, N-[4-(4-Fluoro-3-methoxyphenyl)-2,2-dimethyl-3-oxo-3,4-dihydro-2H-1,4-benzoxazin-7-yl]methanesulfonamide] it was below 500 nM; in that of `COc1cccc(N2C(=O)C(C)(C)Oc3cc(NS(C)(=O)=O)ccc32)c1` [Example 53], below 500 nM; in that of `CS(=O)(=O)Nc1ccc2c(c1)OCC(=O)N2c1ccc(F)c(Cl)c1` [Example 67], 500 to 1000 nM.
The same measure, in the same setting: in the case of `CC1(C)Oc2cc(NS(C)(=O)=O)ccc2N(c2ccncc2)C1=O` [Example 64] it was below 500 nM; in that of `CC1(C)Oc2cc(NS(C)(=O)=O)ccc2N(Cc2ccccc2)C1=O` [Example 19], below 500 nM; in that of `CC1(C)Oc2cc(NS(C)(=O)=O)ccc2N(c2ccc(F)cc2)C1=O` [Example 9, N-[4-(4-fluorophenyl)-2,2-dimethyl-3-oxo-3,4-dihydro-2H-1,4-benzoxazin-7-yl]methanesulfonamide], below 500 nM.

For a further test, the target named is T3, mineralocorticoid receptors (MR) (Rattus norvegicus, UniProt P22199).
T3 construct: mineralocorticoid receptors (MR) derived form rat kidney; from tissue; host or cells: rat kidney
T3 sequence (P22199 1-981): T2 sequence (P22199 1-981)
In words: binding assay using rat MR and 3H-aldosterone. The settings on record: MR derived from rat kidney. The method, then: as §1
For example, in a binding assay using rat MR and ^3H-aldosterone, which was conducted in accordance with a manner as described in The Journal of Pharmacology and Experimental Therapeutics, 1987; 240: p. […] Therefore, the compound [I] of the present invention is useful as a medicament for prevention or treatment of various diseases associated with the receptor and/or aldosterone, such as cardiovascular diseases including hypertension and heart failure.
`CC1(C)Oc2cc([N+](=O)[O-])c(Cl)cc2N(c2ccc(F)cc2)C1=O` [6-chloro-4-(4-fluorophenyl)-2,2-dimethyl-7-nitro-2H-1,4-benzoxizin-3(4H)-one] registered a Ki below 10 µM.

Still in this test, the particulars now being: rat MR and 3H-aldosterone.
With `CS(=O)(=O)Nc1ccc2c(c1)OC(c1ccccc1)C(=O)N2c1ccccc1` (stereo not drawn) [N-(3-oxo-2,4-diphenyl-3,4-dihydro-2H-1,4-benzoxazin-7-yl)methane sulfonamide], the 50% inhibitory concentration (IC50) was below 10 µM.
On to `CC1(C)Oc2cc(NS(C)(=O)=O)ccc2N(c2ccccc2)C1=O` [N-(2,2-dimethyl-3-oxo-4-phenyl-3,4-dihydro-2H-1,4-benzoxazin-7-yl)methanesulfonamide], for which the half-maximal inhibitory concentration (IC50) is below 10 µM.

For the next test, the target named is T4, glucocorticoid receptors (GR) (Rattus norvegicus, UniProt P06536).
T4 construct: glucocorticoid receptors (GR) derived form rat liver; from tissue; host or cells: rat liver
T4 sequence (P06536 1-795): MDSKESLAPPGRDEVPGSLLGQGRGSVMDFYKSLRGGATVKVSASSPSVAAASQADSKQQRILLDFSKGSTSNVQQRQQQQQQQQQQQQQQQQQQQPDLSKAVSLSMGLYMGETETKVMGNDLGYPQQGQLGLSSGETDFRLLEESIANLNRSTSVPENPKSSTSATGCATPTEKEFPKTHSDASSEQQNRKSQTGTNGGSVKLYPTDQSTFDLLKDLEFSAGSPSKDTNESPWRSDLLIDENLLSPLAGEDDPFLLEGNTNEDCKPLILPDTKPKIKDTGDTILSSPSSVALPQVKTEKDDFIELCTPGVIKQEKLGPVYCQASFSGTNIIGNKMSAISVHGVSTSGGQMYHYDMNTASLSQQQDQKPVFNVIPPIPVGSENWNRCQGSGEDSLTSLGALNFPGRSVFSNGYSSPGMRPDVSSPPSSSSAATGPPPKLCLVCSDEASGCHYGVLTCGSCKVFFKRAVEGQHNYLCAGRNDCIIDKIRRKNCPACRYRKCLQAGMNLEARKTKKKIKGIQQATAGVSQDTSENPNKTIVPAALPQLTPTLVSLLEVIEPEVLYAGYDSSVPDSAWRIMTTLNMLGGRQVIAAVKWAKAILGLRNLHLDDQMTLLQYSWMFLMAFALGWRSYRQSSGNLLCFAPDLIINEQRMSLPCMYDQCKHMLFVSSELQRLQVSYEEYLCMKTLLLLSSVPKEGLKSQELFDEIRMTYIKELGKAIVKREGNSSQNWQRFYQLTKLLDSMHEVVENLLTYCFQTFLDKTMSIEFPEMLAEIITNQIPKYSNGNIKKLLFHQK
In words: binding assay using glucocorticoid receptors derived from rat liver and 3H-dexamethazone. Conditions: GR derived from rat liver. As to the method:
as §1
Take `Cc1cc(N2C(=O)C(C)(C)Oc3cc([N+](=O)[O-])ccc32)ccc1F` [4-(4-fluoro-3-methylphenyl)-2,2-dimethyl-7-nitro-2H-1,4-benzoxizin-3 (4H)-one]: the Ki is below 10 µM.
For `Cc1ccc(N2C(=O)C(C)(C)Oc3cc([N+](=O)[O-])ccc32)cc1C(F)(F)F`, the Ki was below 10 µM.
`O=C1C(c2ccccc2)Oc2cc([N+](=O)[O-])ccc2N1c1ccc(F)cc1` (stereo not drawn) [4-(4-fluorophenyl)-7-nitro-2-phenyl-2H-1,4-benzoxizin-3(4H)-one] yielded an inhibition constant (Ki) below 10 µM.

As a reminder, the Ki is the equilibrium dissociation constant of an inhibitor or competing ligand from its target. Higher therefore signals a looser hold on the target. The IC50 is the midpoint of a concentration-inhibition curve.

(Values after US8188073B2, “Benzoxazines and related nitrogen-containing heterobicyclic compounds useful as mineralocorticoid receptor modulating agents” (Mitsubishi Tanabe Pharma Corporation, priority 2006, dated 2012).)
